Source: patent publication US20250206708A1, “AN OXAZIRIDINE PLATFORM FOR TARGETING FUNCTIONAL ALLOSTERIC METHIONINE SITES” (Novartis AG, priority 2022, published 2025)

Assays:
CDK4 [1] = target: T1, CDK4 (Homo sapiens, UniProt P11802); experiment: Gel-based ABPP competition with Compound 303 probe on isolated CDK4; assay type: binding; conditions: Cy3 fluorescence readout
Description: Activity-based protein profiling (ABPP) was performed as follows. CDK4 was diluted in PBS to 50 nM, then 50 μL was added to each well of a 96-well PCR plate. Ligands were dissolved fresh in DMSO to 5 μM, and 1 μL was added so each well contained a unique ligand at the indicated concentration. Wells were mixed and allowed to incubate 1 h at 23° C. […] Excess oxaziridine was quenched with N-acetyl methionine via addition of 1 μL of 10 mM DMSO stock (200 μM final), wells mixed and allowed to incubate 1 h at 23° C. A stock was prepared 1:5 of 12.5 μM DBCO-Cy3 in DMSO: 1.2% SDS/PBS. To each well was added 6 μL of this stock, the wells mixed and allowed to incubate overnight protected from light at 23° C. […] Samples were loaded and separated on precast 4-20% TGX gels and scanned by ChemiDoc MP for measuring in-gel fluorescence. […]
The oxaziridine fragment library from Example 8 was screened for methionine-directed modifiers of CDK4 via a gel-based ABPP platform as described in Example 3, seen in FIG. 7B. […] DBCO-Cy3 was then introduced by strain-promoted click chemistry to provide a fluorescence readout. The samples were subsequently separated via SDS-PAGE and fluorescence signals were normalized via silver stain to triage any covalent ligands that induced general protein aggregation, which would generate a false positive Cy3 signal, as shown in FIG. 5B. […]

CDK1 [2] = target: T2, CDK1 (Homo sapiens, UniProt P06493); experiment: Gel-based ABPP, isoform specificity on CDK1; assay type: binding; conditions: dose-dependent treatment
T2 sequence (P06493 whole entry, canonical isoform): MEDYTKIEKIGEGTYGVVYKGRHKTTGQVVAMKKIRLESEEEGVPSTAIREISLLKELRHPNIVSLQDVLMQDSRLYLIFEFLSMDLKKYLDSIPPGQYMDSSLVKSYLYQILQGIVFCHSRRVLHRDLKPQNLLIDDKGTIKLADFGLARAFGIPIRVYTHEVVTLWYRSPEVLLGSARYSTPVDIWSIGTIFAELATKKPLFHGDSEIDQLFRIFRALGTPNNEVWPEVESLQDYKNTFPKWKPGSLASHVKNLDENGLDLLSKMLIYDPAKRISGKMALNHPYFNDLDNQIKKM
Description: Activity-based protein profiling (ABPP) was performed as follows. CDK4 was diluted in PBS to 50 nM, then 50 μL was added to each well of a 96-well PCR plate. Ligands were dissolved fresh in DMSO to 5 μM, and 1 μL was added so each well contained a unique ligand at the indicated concentration. Wells were mixed and allowed to incubate 1 h at 23° C. Ligands were then chased with fresh Compound 301 with 1 μL of 5 μM added to each well (100 nM final), wells mixed and allowed to incubate 1 h at 23° C. Excess oxaziridine was quenched with N-acetyl methionine via addition of 1 μL of 10 mM DMSO stock (200 μM final), wells mixed and allowed to incubate 1 h at 23° C. A stock was prepared 1:5 of 12.5 μM DBCO-Cy3 in DMSO: 1.2% SDS/PBS. To each well was added 6 μL of this stock, the wells mixed and allowed to incubate overnight protected from light at 23° C. The next morning 30 μL of 4×Laemmli's buffer containing 10% BME was added to each well. The plate was sealed and brought to 95° C. for 6 min. Samples were loaded and separated on precast 4-20% TGX gels and scanned by ChemiDoc MP for measuring in-gel fluorescence. After that, the total protein level on the gel was assayed by silver staining according to the manufacturer's protocol and scanned by ChemiDoc MP.
The isoform specificity was tested with two closely-related congeners, CDK1 and CDK6.

CDK1 [3] = target: T2, CDK1; experiment: Shotgun proteomics (MS/MS) modification of purified CDK1; assay type: binding; conditions: shotgun proteomics on purified protein
CDK6 = CDK6 (Homo sapiens, UniProt Q00534); experiment: Shotgun proteomics (MS/MS) modification of purified CDK6; assay type: binding; conditions: shotgun proteomics on purified protein
Sequence of CDK6 (Q00534 whole entry, the tested form may be a part): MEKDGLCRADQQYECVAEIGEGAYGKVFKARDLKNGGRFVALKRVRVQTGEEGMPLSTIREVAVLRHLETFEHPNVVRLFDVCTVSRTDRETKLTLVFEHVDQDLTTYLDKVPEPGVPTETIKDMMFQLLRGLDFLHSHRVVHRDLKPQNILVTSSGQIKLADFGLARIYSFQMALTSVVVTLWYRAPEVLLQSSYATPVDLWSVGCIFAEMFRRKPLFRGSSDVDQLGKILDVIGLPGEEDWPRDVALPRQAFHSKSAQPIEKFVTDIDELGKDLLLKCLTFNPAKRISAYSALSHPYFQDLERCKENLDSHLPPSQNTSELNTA

CDK4 [4] = target: T1, CDK4; experiment: ADP-Glo luciferase-based in vitro activity assay on purified CDK4; assay type: biochemical; conditions: Rb (aa 773-928) substrate, read-out: IC50, inhibition of activity of purified CDK4 protein
Description: Effects of Compound 148 on in vitro activity of CDK4 were determined via commercially available ADP-Glo assay (Promega; cat no.V6930). Isolated CDK4 was provided by Novartis. Retinoblastoma protein (aa 773-928) was obtained from commercial sources (Millipore Sigma; 12-439). The assay kit protocol was followed as directed, with the addition of a quench step (addition of 1 μL of 25 μM N-Acetyl methionine) after incubation of protein with oxaziridine ligand.

MCF-7 cells = experiment: Cell Counting Kit-8 cell viability assay in MCF-7; assay type: cell-based; conditions: Homo sapiens, MCF7; 24 h, CCK-8; read-out: EC50, decrease in cell viability of MCF-7 cells
Description: (§1) All cells were maintained as a monolayer in exponential growth at 37° C. in a 5% CO2 atmosphere. MCF-7 and HepG2 were maintained in Dulbecco's Modified Eagle Medium (DMEM, Gibco) supplemented with 10% (v/v) fetal bovine serum (FBS, Seradigm). HT-29 and SW-48 were maintained in RPMI 1640 Medium (Gibco) supplemented with 10% FBS.
(§2) All cells dosed with oxaziridine were treated using a 2% DMSO/media solution. Oxaziridines were dissolved in DMSO and used the same day as treatment. Media was removed from cells and replaced with fresh media containing oxaziridine in DMSO for a final concentration of 2% DMSO. Control wells were treated with 2% DMSO/media. Cells were incubated at 37° C. in a 5% CO2 atmosphere.
(§3) Commercially available Cell Counting Kit-8 Assay (Dojindo) was used to investigate cell viability after treatment with oxaziridines. Cells were plated in 96-well plates (black/clear bottom; Thermo Fisher) and grown to 75% confluency. Media was removed and replaced with media containing 2% DMSO and indicated compound concentration. Cells were allowed to incubate 24 h. To assess viability, media was removed and replaced with 100 μL media containing 10% CCK-8 assay solution. Plates were incubated at 37° C. in a 5% CO2 atmosphere for 1-4 h until an orange color was visible. Viability was quantified via plate reader (monofilter) with absorption at 450 nm.

[5] = system: ribociclib-sensitive cell lines; experiment: Cell viability screen across ribociclib-sensitive cell lines; assay type: cell-based; conditions: 500 μM compound
Description: as §1, §2
as §3, with “nm. […]” for “nm.”

T1 sequence (P11802 whole entry): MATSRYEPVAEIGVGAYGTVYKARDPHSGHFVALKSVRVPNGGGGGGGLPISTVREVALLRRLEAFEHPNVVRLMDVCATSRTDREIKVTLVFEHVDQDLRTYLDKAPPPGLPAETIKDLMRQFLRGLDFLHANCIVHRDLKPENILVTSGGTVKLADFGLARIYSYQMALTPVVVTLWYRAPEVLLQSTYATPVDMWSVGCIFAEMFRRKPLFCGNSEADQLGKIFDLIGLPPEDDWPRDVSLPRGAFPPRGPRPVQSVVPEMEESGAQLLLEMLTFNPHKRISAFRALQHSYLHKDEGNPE
T1 sequence (P24385 whole entry partner): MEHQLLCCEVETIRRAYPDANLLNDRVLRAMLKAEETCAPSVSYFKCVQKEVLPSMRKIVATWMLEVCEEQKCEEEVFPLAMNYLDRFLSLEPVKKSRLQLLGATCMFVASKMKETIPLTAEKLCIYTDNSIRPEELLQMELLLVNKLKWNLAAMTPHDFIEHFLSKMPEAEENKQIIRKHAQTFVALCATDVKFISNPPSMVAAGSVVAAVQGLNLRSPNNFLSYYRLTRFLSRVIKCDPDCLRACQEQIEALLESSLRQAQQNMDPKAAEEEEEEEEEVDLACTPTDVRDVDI

- labeling against CDK1 by gel analysis (CDK1 [2]): no dose-dependent labeling
- modifications on CDK1 (CDK1 [3]): No modifications
- modifications on CDK6 (CDK6): No modifications
- IC50 (CDK4 [4]): ~0.2 µM
- EC50 (MCF-7 cells): 330 µM
Compound: O=C(N1CC2COCC2C1)N1OC1c1ccccc1 (stereo not shown) [Compound 148]
- competition with Compound 303 probe for CDK4 binding (CDK4 [1]): competition with the Compound 303 probe for CDK4 binding in a dose-dependent manner
- cell viability of ribociclib-sensitive cell lines [5]: decrease cell viability
